As for `CCN1C(=O)OC(=Cc2ccc3c(c2)OCO3)C1=O`, the melting point was in the range of 135 to 137 °C. To `COc1ccccc1N1CCN(CCCCN2CSCC2=O)CC1` belongs 80 to 81 °C; to `O=C(Nc1ccc(Oc2ccnc(NCC3CC3)n2)c2ccccc12)c1cc(F)cc(N2CCOCC2)c1`, 116 to 117 °C.

`CC(C)(C)CC(C)(C)c1cc(-n2nc3ccc(C(F)(F)F)cc3n2)c(O)c(C(C)(C)c2ccccc2)c1` came in with a melting point of 119 to 121 °C. `Cc1cc(C)c(N2C(=O)C(C)Cc3c(Cl)nc(C)nc32)c(C)c1` (centres undefined): the melting point was in the range of 136 to 139 °C. In the case of `COc1cc(C(=O)CCC(=O)c2cc(OC)c(OC)c(OC)c2)cc(I)c1O`, the melting point was in the range of 189 to 190 °C.

With `Cc1nc(N)c2nc(C)n(CCNC(=O)C(C)C)c2c1C`, the melting point lay in the range of 220 to 222 °C.

For `COC(=O)C(C)NC(=O)C1C(C)(C)CCC1(C)C` (centres undefined), the melting point is 86.7 °C. `CC(=O)c1cc(CC(C)O)c(OCCCCC#N)cc1O` (centres undefined): the melting point is 86 to 88 °C.

As to `C=C(C#N)CCC(=O)O`, the melting point was 26.5 to 27 °C.

Turning to `O=C(c1ccc(O)cc1)N1CCN(CC(O)Cn2c3ccccc3c3ccccc32)CC1` (centres undefined), the melting point is 184 °C. Compound `CC12CCC(C(=O)O)=CC1=CCC1C2CCC2(C)C(C(=O)c3ccccc3)CCC12` (centres undefined) had a melting point of 222 to 225 °C. As to `Cc1sc(-c2ccccc2)nc1COc1ccc(CO)cc1`, the melting point was 94 to 95 °C. To `CCOC(=O)COc1cccc2c1CCc1sc(SCC(c3ccccc3)c3ccccc3)nc1-2` belongs 92 to 93 °C. Consider `CN(C)c1ccc2c(c1)N(CCCN1CCC(C(=O)O)CC1)c1ccccc1CC2`, for which the melting point was 198 to 202 °C. For `CN(C)CCOc1ccc2nc(C#N)nc(NC3CCCC3)c2c1`, the melting point fell in the range of 158 to 160 °C. Regarding `O=C(O)C1CCc2c(c3ccccc3n2C(=O)c2cccs2)C1` (centres undefined), the melting point was 180 to 182 °C. In the case of `CCOC(=O)c1c(C(F)(F)F)nsc1SC`, the melting point lay within 64 to 65 °C. Compound `Cc1cc(C)c2cccc(OCc3c(Cl)ccc(S(=O)(=O)N4CCC[C@H]4C(=O)NCCCNC(=O)c4ccc(C=NN)cc4)c3Cl)c2n1` registered a melting point of 178 to 180 °C. In turn, `CS(=O)(=O)c1ccc(Oc2cc(OCc3cccc(Cl)n3)c3[nH]c(C4=NCC(CC(=O)O)S4)cc3c2)cc1` (centres undefined) returned a melting point of 175 to 176 °C. To `CC(C)(Oc1ccc(OCc2ccccc2)cc1)C(=O)O` belongs 134 to 137 °C; to `COc1c(C)cnc(CS(=O)c2nc3ccccc3n2CCl)c1C` (centres undefined), 140 to 141 °C. Take `O=C(NCCCCNS(=O)(=O)c1ccc(Oc2ccccc2)cc1)P(=O)(O)O`: the melting point lay within 143 to 145 °C.

`CCOC(=O)C1=C(C)NC(C=O)=C(C(=O)OCC)C1c1ccco1` (centres undefined) showed a melting point of 78 to 79.5 °C. Regarding `Cn1c(C(=O)OC(C)(C)C)c(O)c2cc(OCc3ccccc3)ccc21`, the melting point lay within 101 to 103 °C.

The compound `CCOC(=O)c1ccn2c(C(=O)c3cccc(O)c3)c(-c3ccccc3)cc2c1` returned a melting point of 193 to 195 °C.

The compound `COc1cc(Cl)cc2c1OC(COS(=O)(=O)c1ccc(C)cc1)C2` (centres undefined) showed a melting point of 99 to 102 °C. The compound `c1ccc(CNc2nc3c(c4[nH]c(Cc5ccccc5)nc24)CCCC3)cc1` gave a melting point of 199 to 200 °C. `CNC(=S)n1nc(N)nc1N` had a melting point of 176 to 178 °C. `O=[N+]([O-])c1ccc(OC2CCCC2)cc1NC1CCCCC1`: the melting point was 98 °C.

In the case of `N#CNC(=Nc1cccnc1)NC1CCN(Cc2ccccc2)CC1`, the melting point was 173 to 174 °C. As for `COc1cc(N)c(Cl)cc1C(=O)NC1C2CCN(CC2)C1CN1CCCCC1` (centres undefined), the melting point is 185 to 187 °C. As for `CC(=O)Oc1ccc(-n2cc(C(=O)OC3CCc4ccccc43)c(=O)cc2-c2cc3ccccc3s2)cc1` (centres undefined), the melting point was 234 to 236 °C. `NC(=O)N(O)CCn1cc(Sc2ccccc2)c2ccccc21`: the melting point was in the range of 95 to 99 °C. With `CCCCCCC1([N+](=O)[O-])C=CC(C(=O)O)=CC1` (centres undefined), the melting point lay within 106 to 108 °C. For `O=C(Nc1ccc(C2(O)CCCN(C(=O)OCc3ccccc3)C2)c(F)c1)OCc1ccccc1` (centres undefined), the melting point is 137 to 139 °C. The compound `COc1ccc(C(=O)/C(Cc2cc(OC)c(OC)c(OC)c2)=C(/C(=O)O)c2ccc3c(c2)OCO3)cc1` gave a melting point of 192 to 193 °C. The compound `O=C1Cc2cc(F)c(F)cc2N1` displayed a melting point of 187 to 190 °C. For the compound `CC12CCC3C(CC4OC45CC(O)CCC35C)C1CCC2=O` (centres undefined), the melting point lay within 197 to 200 °C. In turn, `C=CCOC(=O)c1c(C)c(OC)cc(O)c1C=O` came in with a melting point of 73 to 74 °C. Take `CC(NC(=O)Cc1cc(F)cc(F)c1)C(=O)NC1C(=O)N(CCc2ccccc2)Cc2ccccc21` (centres undefined): the melting point lay in the range of 75 to 76 °C. Regarding `O=c1c(-c2ccccc2)c(-c2ccccc2)sn1-c1ccccc1`, the melting point fell in the range of 175 to 176 °C. For the compound `CCCCc1ncc(/C=C(\Cc2cccs2)C(=O)O)n1Cc1ccc(C=CC(=O)O)cc1`, the melting point was in the range of 199 to 203 °C. The compound `Cc1oc(-c2ccco2)nc1COc1ccc(CO)cn1` returned a melting point of 120 to 121 °C. `C#CCNC(=O)N1CC(c2ccc(Cl)c(Cl)c2)C1` registered a melting point of 106 to 108 °C. Under `COc1cccc2oc(=O)c3c4c(ccc3c12)NC(C)(C)C=C4C` stands 247 to 248 °C; under `COc1ccnc(CSc2nc3c(C(F)(F)F)cccc3[nH]2)c1`, 146 °C. As for `O=C1CCc2ncc3cc(F)ccc3c2N1`, the melting point is 266 to 267 °C. `Cc1ccc(C(=O)CC(=O)C(F)F)cc1Cl` displayed a melting point of 40 to 41 °C. `CCCS(=O)(=O)NNC(=O)NNS(=O)(=O)CCC` had a melting point of 191 to 194 °C. `Cc1cccc(NC(=O)NC2N=C(c3ccccc3F)c3ccccc3N(Cc3ccccn3)C2=O)c1` (racemic) returned a melting point of 215 to 216 °C.

The compound `ClCc1cncc(-c2ccccc2)c1` displayed a melting point of 75 to 76 °C. As to `NC(=O)N1CCN(c2nn(-c3ccccc3)c3cc(F)ccc23)CC1`, the melting point was in the range of 168 to 170 °C. As for `COc1ccc(-c2cnc3cc(OC)c(OC)cc3c2)cn1`, the melting point lay within 170 to 172 °C.

In turn, `CN1CCC(c2c[nH]c3ccc(/C=C/S(N)(=O)=O)cc23)CC1` had a melting point of 208 to 209 °C. As for `CCOC(=O)C(C#N)=C1CCN(c2ccc(N3C[C@H](CNC(C)=S)OC3=O)cc2F)CC1`, the melting point lay within 182 to 185 °C. As to `CC(C)(C)OC(=O)CSc1cccc(-c2nc(=O)c3ccccc3s2)n1`, the melting point stood at 170 °C.

Compound `C/C(=C\CC1OC(=O)NC1=O)c1cccc(OCc2nc(-c3ccc(OC(F)(F)F)cc3)oc2C)c1` (centres undefined) registered a melting point of 105 to 106 °C. In turn, `N#CCCNC(=O)c1cccc(-c2ccc3c(c2)N(Cc2ccc(Cl)cc2Cl)CCCC3)c1` returned a melting point of 139 to 140 °C. To `O=[N+]([O-])c1ccc(NN=Cc2cnccn2)nc1` belongs 271 to 272 °C; to `Nc1nc(Cl)nc(NC2CC2)n1`, 188 to 189 °C; to `O=C(OC1CCC1)N1CCC(c2nc3cc(-c4ccc(-n5cnnn5)cc4F)ccc3o2)CC1`, 165 to 169 °C. For `CCOC(=O)C1=Cc2cc(C#C[Si](C)(C)C)ccc2NC1C(F)(F)F` (centres undefined), the melting point lay within 117 to 119 °C. To `CCOC(=O)c1cc(NCc2c(C)cccc2C)c2nc(COC)n(C)c2c1` belongs 134 to 135 °C; to `Cc1cc(C)cc(COC(=O)C(Cc2c[nH]c3ccccc23)NC(=O)OC(C)(C)C)c1` (centres undefined), 152 to 153 °C; to `Nc1nc(-c2cc(Cl)ccc2Cl)nc(N2CCSCC2)n1`, 239 to 241 °C. Under `CN(C)C(=O)c1cc2c(nc(C(F)(F)F)n2C)c2c1CCC(c1ccccc1)O2` (centres undefined) stands 223 to 225 °C. In the case of `N#CC(=NO)c1ccc(Cl)cc1Cl`, the melting point amounted to 151 °C. For the compound `COc1ccc(Nc2nc(-c3ccc(OC)c(OC)c3)cs2)nc1`, the melting point lay within 222 to 225 °C.

For `O=C(Nc1ccccc1)O[C@@H]1CN=C(c2ccccc2)O[C@H]1c1ccccc1` (racemic), the melting point stood at 111 °C. Turning to `Cc1cc(NCCO)c2[nH]nc(C)c2n1`, the melting point was 225 to 230 °C. `Cc1cc([N+](=O)[O-])cnc1Oc1ccc(Cl)c(C(F)(F)F)c1` yielded a melting point of 95 to 97 °C. In turn, `COC1CCC(OC)C2=C1C=CC(O)(C(C)=O)C2` (single isomer, unassigned; (-)) registered a melting point of 130 to 132 °C. `CC(=O)NN=Cc1ccc2ccccc2n1` had a melting point of 218 to 219 °C. For `COc1ccc(C2=CCCC(=O)O2)cc1`, the melting point was in the range of 77.4 to 79.8 °C. Under `N#Cc1ccc(N2CCN(c3ccc(O)cc3)CC2)cc1` stands 258 to 262 °C; under `CC(C)(C)c1cc(C(=S)SC(C)(C)c2ccccc2)cc(C(C)(C)C)c1O`, 100 to 104 °C. `CCCCCCCCCCCCOC(=O)NCCC(=O)NC(Cc1c[nH]cn1)C(=O)O` (centres undefined) displayed a melting point of 168 to 172 °C. `COC(=O)c1c(C)sc2cc(CCn3ccnc3)ccc12` displayed a melting point of 90 to 92 °C. In the case of `Cc1ncccc1C(C#N)N1CCN(C(=O)CC(NC(=O)Cc2cccc(OCc3ccc4ccccc4n3)c2)c2ccccc2)CC1` (centres undefined), the melting point fell in the range of 83 to 86 °C.

In turn, `COC(=O)Cn1c(-c2ccc(Cl)cc2)nc2cccnc21` registered a melting point of 198 to 200 °C. As to `OCc1c(C(F)(F)F)nn2ccc3c(c12)CCO3`, the melting point was 151 to 153 °C. Compound `O=C(O)C1CCc2c(c3ccccc3n2C(=O)c2cccc(Cl)c2)C1` (centres undefined) returned a melting point of 179 to 181 °C. `CC1(C)COc2cc(C(F)(F)F)ccc2C(O)(c2ccccn2)C1` (centres undefined) showed a melting point of 78 °C. The compound `CCOC(=O)c1c(Cn2cnnc2)nc2sc(C)c(C)c2c1-c1ccc(OC)c(OC)c1` displayed a melting point of 187 to 188 °C. As for `CCCC(=O)Nc1n[nH]c2c([N+](=O)[O-])c(Br)ccc12`, the melting point stood at 248 °C. Compound `CN(Sc1ccccc1)C(=O)Oc1cccc2c1OC(C)(C)C2` returned a melting point of 66 °C. Compound `COc1cc(Cl)cc(CC(O)CO)c1OCc1ccccc1` (centres undefined) gave a melting point of 65 to 68 °C.

`COc1ccc(C2C(C#N)=C(N)Oc3c2ccc2cnccc32)cc1OC` (centres undefined) had a melting point of 215 to 218 °C.

For the origin of these results see a melting point compilation (Tetko et al.; mined from patent text by program, amines drawn as free bases though some values may be those of a salt).
